One assay concerns the target T1, CmeB (Campylobacter jejuni, UniProt Q8RTE4).
T1 construct: full-length, N-terminal 6xHis (pET15b), E. coli BL21(DE3)deltaacrB host; homotrimer
The experiment in a line: isothermal titration calorimetry. The settings on record: 20 mM Na-HEPES pH 7.5, 0.03% DDM, room temperature; 20 μM monomer in cell; no cyclooctatetraene. It is filed as binding. (In general: ITC needs no label: the signal is the heat of the interaction.)

Assay [1] addresses Campylobacter jejuni CmeB multidrug efflux pump (Campylobacter jejuni) (UniProt Q8RTE4). Nature of the assay: crystal structure.

For `C[C@H](CCC(=O)NCCS(=O)(=O)O)[C@H]1CC[C@H]2[C@@H]3CC[C@@H]4C[C@H](O)CC[C@]4(C)[C@H]3C[C@H](O)[C@]12C` [taurodeoxycholate], the KD entry on CmeB is listed as “examine the binding of taurodeoxycholate to the purified CmeB transporter”.

A word on the stoichiometry N: it is a count of units in the complex or per binding partner. As to “Campylobacter jejuni CmeB multidrug efflux pump (from UniProt Q8RTE4) (natural protein)”, the stoichiometry N in assay [1] was 3.

Values taken from article PMC5537355, “Structures and transport dynamics of a Campylobacter jejuni multidrug efflux pump” (Nature Communications, 2017).
